# Results: US20170216252A1, “ANTI-BACTERIAL PYRUVATE KINASE MODULATOR COMPOUNDS, COMPOSITIONS, USES AND METHODS” (SIMON FRASER UNIVERSITY, priority 2014, published 2017)
# Read-outs that look alike come from different tables or passages of the source.
# Tests used:
# [1] = target: T1, MRSA PK (Staphylococcus aureus, UniProt Q6GG09); assay: MRSA PK activity, continuous LDH-coupled assay; type: biochemical, S. aureus (MRSA strain Sanger 252); conditions: for inhibition at 10 µM: read-out: % inhibition at the highest concentration tested (IC50)
# T1 construct: His tag (pET-28a(+) vector) (N); made in house; host or cells: E. coli BL-21 (DE3)
# T1 sequence (Q6GG09 whole entry): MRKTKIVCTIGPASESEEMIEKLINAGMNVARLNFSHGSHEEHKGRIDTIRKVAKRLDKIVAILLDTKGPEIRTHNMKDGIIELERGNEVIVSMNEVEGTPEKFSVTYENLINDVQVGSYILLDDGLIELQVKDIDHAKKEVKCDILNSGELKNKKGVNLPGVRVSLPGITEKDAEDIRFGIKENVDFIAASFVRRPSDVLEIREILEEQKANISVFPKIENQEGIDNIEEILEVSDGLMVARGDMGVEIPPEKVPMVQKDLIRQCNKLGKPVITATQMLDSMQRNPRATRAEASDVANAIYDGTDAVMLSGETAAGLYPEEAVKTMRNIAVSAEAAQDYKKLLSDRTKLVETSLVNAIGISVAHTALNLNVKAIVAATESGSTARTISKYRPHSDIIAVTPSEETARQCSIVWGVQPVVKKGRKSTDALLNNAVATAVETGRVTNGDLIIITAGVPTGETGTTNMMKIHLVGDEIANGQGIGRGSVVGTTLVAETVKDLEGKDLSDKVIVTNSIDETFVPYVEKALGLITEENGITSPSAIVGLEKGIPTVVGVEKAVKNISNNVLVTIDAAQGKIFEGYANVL
# From the text: Genomic DNA of MRSA strain Sanger 252 extracted using DNeasy Tissue Kit™ (Qiagen™) was used as a template to generate the His-tagged MRSA PK. Human cDNA from MCF-7 breast cancer cell line (courtesy of Dr. J Wong, BC Cancer Research Center (Vancouver, Canada) was used as a template to generate the full-length human M2 PK enzyme. The following primer sets were used creating appropriate restriction sites (NdeI and XhoI sites underlined): For cloning of MRSA PK: M27F 5′-[…]-3′ and M27R 5′-[…]-3′, for cloning of human M2 PK isoform: hM2F 5′-[…]-3′ and hM2R 5′-[…]-3′. The resulting PCR fragments for each construct were cloned into the NdeI and XhoI unique sites of the bacterial expression vector pET-28a (+) (Novagen™). […] The sequence and the correct reading frame of all constructs were verified by sequencing. Human M1, R and L PK constructs in pET-28-a(+) vectors (courtesy of Dr. L. Cantley, Harvard Medical, School (Boston, USA)) were used to generate relevant recombinant His-tagged human PK isoforms.
# MRSA and human constructs in pET-28a(+) were used to express relevant recombinant PK proteins in E. coli BL-21 (DE3). The proteins were expressed and purified using Ni-NTA agarose (Qiagen™) according to the manufacturer's protocol. Briefly, cells were grown to an absorbance of 0.4-0.5 at 600 nm in 2×YT medium, then induced with 0.1 mM IPTG for 3 h at 20° C. Cells were lysed by sonication on ice (3×10-s bursts with a 30-s recovery between bursts) in lysis buffer (0.2 mg/ml lysozyme, 50 mM Tris pH 7.5, 10 mM MgCl2, 200 mM NaCl, 100 mM KCl, 10% glycerol, 10 mM imidazole, 0.5% NP-40 and 1 mM DTT containing Complete™ protease inhibitor). Cell lysates were cleared by centrifugation (18,000×g in a Beckman™ JA-20 rotor) for 20 min at 4° C. and PK isoforms were purified by batch binding to Ni-NTA resin. The resins were then packed in columns (1×2 cm) and washed with 400 column volumes lysis buffer containing 30 mM imidazole. His-tagged PK isoforms were eluted with the same buffer containing 300 mM imidazole. The proteins were dialyzed overnight at 4° C. against 2000 volumes of ice-cold 30 mM Tris pH 7.5, 25 mM KCl, 5 mM MgCl2, 10% glycerol and 1 mM DTT to remove imidazole. All purification steps were done at 4° C.; enzymes were flash-frozen and stored at −70° C. […] Purity and physical integrity of proteins were assessed using SDS-polyacrylamide gel electrophoresis (SDS-PAGE) followed by coomassie blue staining. Protein concentration was estimated by Bradford assay (Bio-Rad Protein Assay™) using bovine serum albumin as a standard.
# Candidate MRSA PK inhibitors were assayed for their ability to inhibit enzymatic activities of MRSA and human PKs. PK activity was determined using a continuous assay coupled to lactate dehydrogenase (LDH) in which the change in absorbance at 340 nm owing to oxidation of NADH was measured using a Benchmark Plus™ microplate spectrophotometer (Bio-Rad Laboratories, Hercules, Calif.). […] Reactions were initiated by the addition of 15 nM of one of the PK enzymes. PK activity proportional to the rate of change at 340 nm was expressed as specific activity (μmol/min/mg), which is defined as the amount of PK that catalyzes the formation of one micromole of either product per minute. Inhibitors were dissolved in DMSO with the final concentration of the solvent never exceeding 1% of the assay volume. IC50 values were calculated by curve fitting on a four-parameter dose-response model with variable slope using Graphpad Prism 5.0™ (GraphPad™ Software Inc., La Jolla, Calif.). […] Reactions were performed at 30° C. for up to 5 min. All values determined represent at least two measurements, in triplicate (Tables 1-6) or duplicate unless mentioned otherwise.
# [2] = system: S. aureus ATCC 29213; assay: In vitro susceptibility, broth microdilution MIC; type: cell-based, Staphylococcus aureus
# Protocol: The antimicrobial activities of PK inhibitor candidates were determined using the 96-well microtiter standard 2-fold serial broth microdilution method as described by CLSI (formerly NCCLS) with the various gram-positive and gram-negative bacteria species mentioned above. Bacteria from a single colony were grown, overnight in either BHI Broth (VRE), mueller hinton broth (S. aureus 29213; MRSA USA400) or L-broth (E. coli, P. aeruginosa, S. typhimuriu, K. Pneumonia and A. baumannii). […] Culture plates were incubated for 18-24 h at 37° C., and optical density at 600 nm (OD600) was measured using a Benchmark Plus™ microplate spectrophotometer (Bio-Rad™). The absorbance control values for the series containing CAMHB and inhibitor were subtracted as background from the corresponding infected wells. The MIC was defined as the lowest concentration of test compound leading to complete inhibition of cell growth in relationship to compound-free control wells as determined by optical density. […] All assays were run in triplicate (Tables 1-6) or duplicate. Experiments were replicated at least twice to verify reproducibility using the above conditions.
# [3] = Staphylococcus aureus, ATCC29213, Table 8, tested at least in duplicate, differing values all given, read-out: MIC
# [4] = Staphylococcus aureus, ATCC29213, Tables 1-6 and text, minimum concentration to give >98% inhibition of growth, read-out: MIC
# [5] = Tables 1-6, 2 mM ADP, 10 mM PEP, 15 nM PK, read-out: IC50
# [6] = Table 8, tested at least in duplicate, differing values all given
SMILES,IC50 [1],"MIC [2, 3]","MIC [2, 4]",further results
"Cc1cnc(/C=C/c2cc3ccc(Br)cc3[nH]2)cn1 [Compound 109, (E)-6-Bromo-2-(2-(5-methylpyrazin-2-yl)vinyl)-1H-indole]",> 1000 nM,> 64 µg/mL,,
"Cn1c(C#Cc2cc3cc(Br)ccc3[nH]2)cc2cc(Br)ccc21 [Compound 48, 5-Bromo-2-((5-bromo-1H-indol-2-yl)ethynyl)-1-methyl-1H-indole]",,,> 64 µg/mL,inhibition at 10 µM [1]: 60%
"O=C1c2ccc(Br)cc2C(=O)N1c1nc2ccc(Br)cc2s1 [Compound 65, 5-bromo-2-(6-bromobenzo[d]thiazol-2-yl)isoindoline-1,3-dione]",,,> 64 µg/mL,inhibition at 10 µM [1]: 76%
"COc1ccc(/C=C/c2cc3ccc(Br)cc3[nH]2)nc1 [Compound 107, (E)-6-Bromo-2-(2-(5-methoxypyridin-2-yl)vinyl)-1H-indole]",50 to 100 nM,> 64 µg/mL,,
"Cn1c(C#Cc2cc3ccc(Br)cc3[nH]2)cc2ccc(Br)cc21 [Compound 26a, 6-bromo-2-((6-bromo-1H-indol-2-yl)ethynyl)-1-methyl-1H-indole]",,,> 64 µg/mL,"IC50 [1, 5]: 13.7 nM"
COC(=O)c1c(-c2cc3cc(Br)c(Br)cc3[nH]2)[nH]c2cc(Br)c(Br)cc12 [Compound 39d],2.1 nM,,4 µg/mL,
"O=C(Nc1nc2cc(Br)ccc2s1)c1cc(Br)ccc1O [Compound 50, 5-Bromo-N-(5-bromobenzo[d]thiazol-2-yl)-2-hydroxybenzamide]",,,> 64 µg/mL,inhibition at 10 µM [1]: 60%
"COc1ccc(Br)cc1C(=O)Nc1nc2ccc(Br)cc2s1 [Compound 68, 5-Bromo-N-(6-bromobenzo[d]thiazol-2-yl)-2-methoxybenzamide]",8.3 nM,,> 64 µg/mL,
"O=C(Nc1nc2ccc(Br)cc2s1)c1cc(Br)cc(Br)c1O [Compound 85, 3,5-dibromo-N-(6-bromobenzo[d]thiazol-2-3/1)-2-hydroxybenzamide]",4.1 nM,,1 µg/mL,
"COC(=O)c1c(C(=O)Nc2ccc(Cl)nc2)[nH]c2cc(Br)ccc12 [Compound 138, Methyl 6-bromo-2-((6-chloropyridin-3-yl)carbamoyl)-1H-indole-3-carboxylate]",< 50 nM,> 64 µg/mL,,
"CC(=O)c1c(CCc2cn3c(n2)CCCC3)[nH]c2cc(Br)ccc12 [Compound 127, 1-(6-Bromo-2-(2-(5,6,7,8-tetrahydroimidazo[1,2-a]pyridin-2-yl)ethyl)-1H-indol-3-yl)ethan-1-one]",> 100000 nM,64 µg/mL,,
"Clc1cc(Cl)cc(/C=C/c2cc3ccc(Br)cc3[nH]2)c1 [Compound 95, (E)-6-Bromo-2-(3,5-dichlorostyryl)-1H-indole]",< 50 nM,7.1 µg/mL,,"MIC [2, 6]: 8 µg/mL"
"Clc1cnc(C#Cc2cc3ccc(Br)cc3[nH]2)nc1 [Compound 142, 6-Bromo-2-((5-chloropyrimidin-2-yl)ethynyl)-1H-indole]",50 to 100 nM,> 64 µg/mL,,
"Clc1ccc(NCc2cc3ccc(Br)cc3[nH]2)cc1 [Compound 147, N-((6-Bromo-1H-indol-2-yl)methyl)-4-chloroaniline]",,> 64 µg/mL,,EC50 [1]: 244 nM
"O=C(Nc1nc2ccc(Br)cc2s1)c1cc2cc(Br)ccc2[nH]1 [Compound 82, 5-Bromo-N-(6-bromobenzo[d]thiazol-2-yl)-1H-indole-2-carboxamide]",22.5 nM,,> 64 µg/mL,
"COC(=O)c1c(C(=O)Nc2ccc(OC)nc2)[nH]c2cc(Br)ccc12 [Compound 135, Methyl 6-bromo-2-((6-methoxypyridin-3-yl)carbamoyl)-1H-indole-3-carboxylate]",,> 64 µg/mL,,EC50 [1]: 31.7 nM
"COc1ccc2[nH]c(-c3[nH]c4cc(Br)ccc4c3C(=O)C(F)(F)F)cc2c1 [Compound 179, 1-(6-bromo-5′-methoxy-1H,1′H-[2,2′-biindol]-3-yl)-2,2,2-trifluoroethan-1-one]",< 50 nM,64 µg/mL,,
"Clc1ccc(CCc2nc3ccc(Br)cc3[nH]2)cc1 [Compound 154, 6-bromo-2-(4-chlorophenethyl)-1H-benzo[d]imidazole]",> 1000 nM,16 µg/mL,,"MIC [2, 6]: 32 µg/mL"
"O=C(c1cc2ccc(Br)cc2[nH]1)c1cc(Br)ccc1O [Compound 87, (6-Bromo-1H-indol-2-yl)(5-bromo-2-hydroxyphenyl)methanone]",,,> 64 µg/mL,inhibition at 10 µM [1]: 58%
"Brc1ccc2cc(CSc3nc4ccccc4[nH]3)[nH]c2c1 [Compound 148, 2-(((6-Bromo-1H-indol-2-yl)methyl)thio)-1H-benzo[d]imidazole]",> 1000 nM,32 µg/mL,,
"Brc1ccc2cc(/C=C/c3cn4ccccc4n3)[nH]c2c1 [Compound 110, (E)-2-(2-(6-Bromo-1H-indol-2-yl)vinyl)imidazo[1,2-a]pyridine]",< 50 nM,> 64 µg/mL,,
"Clc1ccc2[nH]c(-c3cc4ccc(Br)cc4[nH]3)nc2c1 [Compound 164, 2-(6-bromo-1H-indol-2-yl)-5-chloro-1H-benzo[d]imidazole]",< 50 nM,1 µg/mL,,
"O=C(Nc1nc2ccc(Br)cc2[nH]1)c1cc(Br)ccc1O [Compound 78, 5-Bromo-N-(6-bromo-1H-benzo[d]imidazol-2-yl)-2-hydroxybenzamide]",11.3 nM,,4 µg/mL,
"Brc1ccc2[nH]c(-c3cc4cc(Br)c(Br)cc4[nH]3)cc2c1 [Compound 10m, 5,5′,6-Tribromo-1H,1′H-2,2′-biindole]",,,1 µg/mL,"IC50 [1, 5]: 1.6 nM"
"COC(=O)c1c(NCc2cn3ccccc3n2)[nH]c2cc(Br)ccc12 [Compound 166, Methyl 6-bromo-2-(imidazo[1,2-a]pyridin-2-ylmethylamino)-1H-indole-3-carboxylate]",> 1000 nM,> 64 µg/mL,,
"Brc1ccc(-c2cc3ccc(Br)cc3[nH]2)cc1 [Compound 55, 6-bromo-2-(4-bromophenyl)-1H-indole]",56.9 nM,,> 64 µg/mL,
"Brc1ccc2[nH]c(/C=C/c3cc4ccc(Br)cc4[nH]3)cc2c1 [Compound 27c, (E)-6-bromo-2-(2-(5-bromo-1H-indol-2-yl)vinyl)-1H-indole]",,,> 64 µg/mL,"IC50 [1, 5]: 4.1 nM"
"Clc1ccc(/C=C/c2cc3ccc(Br)cc3[nH]2)nc1 [Compound 108, (E)-6-Bromo-2-(2-(5-chloropyridin-2-yl)vinyl)-1H-indole]",100 to 1000 nM,> 64 µg/mL,,
